Target: MDM2 (Homo sapiens, UniProt Q00987)
Assay: biochemical

Sequence of MDM2 (Q00987 1-118): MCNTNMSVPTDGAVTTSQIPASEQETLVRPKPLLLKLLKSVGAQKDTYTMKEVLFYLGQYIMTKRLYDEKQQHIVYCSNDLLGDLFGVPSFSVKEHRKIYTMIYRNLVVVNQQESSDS

Ki: 9.6 ± 3.9 nM
SMILES: CC(C)(C)C[C@H]1N[C@@H](C(=O)NCC[C@H](O)CO)[C@H](c2ccc(F)c(Cl)c2)[C@@]12C(=O)Nc1cc(Cl)c(F)cc12 [MI-319]
